Patent US8202540B1, “Method for controlled production of ultrafine microparticles and nanoparticles” (Abbott GmbH & Co., KG, priority 1999, dated 2012)
Values belong to the compound of their own block, whether it stands above or below them.

Legend:
Format in all cases: physicochemical
[1] = Particle size by laser diffractometry (LD, Coulter LS230)
[2] = Particle size by photon correlation spectroscopy (PCS, Zetasizer 4); details: Example 2: anhydrous glycerol, 20 cycles at 1500 bar
Excerpt: The characterization of the superfine microparticle dispersions and nanoparticles was by means of laser diffractometry (LD) (Coulter LS230, Coulter Electronics, Miami, USA) and photon correlation spectroscopy (PCS) (Zetasizer 4, Malvern Instruments, Malvern, United Kingdom). Characterization parameters were the 50% (D50%), 90% (D90%) and 95% (D95%) LD diameter measured by LD. The PCS (measurement range approx. 3 nm-3 μm) gives the PCS diameter and, as a measure of the width of the distribution, the polydispersity index (PI) in the range from 0.000 (+ideal monodispersion) to 0.500 (very broad distribution), above 0.5 no further conclusions can be drawn with regard to the width of distribution.

[3] = Average particle diameter determined by light microscopy; details: Example 14: propylene glycol, 0.2% Tween 80; 700 bar, room temperature, 30 minutes, degassed medium, nitrogen
Excerpt: 10% tragacanth was dispersed in Miglyol 812 with addition of 1% Span 80 and microparticles prepared as described in example 1. The average diameter determined by light microscopy was 7.54 μm after 10 cycles at 1500 bar.
Preparation of a Clinical Batch Under Oxygen-Poor Conditions and protective gassing: azodicarbonamide (1) was dispersed with addition of Tween 80 (0.2%) analogously to example 12 in 2 kg propylene glycol and homogenized (homogenization pressure: 700 bar, room temperature) in a cyclical process for 30 minutes with a Micron LAB 60 (APV Deutschland GmbH, Lubeck, Germany). Propylene glycol was degassed beforehand by heating. The product container was kept under nitrogen. The average diameter determined by light microscopy was 5.45 μm after 30 minutes' homogenization time.

[4] = Example 1: 1% drug, 0.5% Tween 80, anhydrous glycerol, 6 cycles at 1500 bar, room temperature
[5] = Example 3: anhydrous glycerol, 10 cycles at 1500 bar
[6] = Example 3: purely aqueous dispersion (glycerol replaced by water), 10 cycles at 1500 bar
[7] = Example 6: 1.0% water, 4 cycles at 1500 bar
[8] = Example 6: anhydrous (0% water), 4 cycles at 1500 bar
[9] = Example 7: 10% water, 4 cycles at 1500 bar
[10] = Example 7: 30% water, 4 cycles at 1500 bar
[11] = Example 8: 50% water, 4 cycles at 1500 bar
[12] = Example 13: 10 cycles at 1500 bar
[13] = Example 12: 10% in PEG 400, 0.5% Tween 80, 4 cycles at 1500 bar

D50% LD diameter [1, 4]: 1.7 μm
D90% LD diameter [1, 4]: 4.5 μm
D95% LD diameter [1, 4]: 5.4 μm
D50% diameter [1, 5]: 1.3 μm
D90% diameter [1, 5]: 3.2 μm
D50% diameter [1, 6]: 0.9 μm
D90% diameter [1, 6]: 2.3 μm
D50% diameter [1, 7]: 2.1 μm
D90% diameter [1, 7]: 5.4 μm
D50% diameter [1, 8]: 1.9 μm
D90% diameter [1, 8]: 4.9 μm
D50% diameter [1, 9]: 1.7 μm
D90% diameter [1, 9]: 4.1 μm
D50% diameter [1, 10]: 1.7 μm
D90% diameter [1, 10]: 4.2 μm
D50% diameter [1, 11]: 1.5 μm
D90% diameter [1, 11]: 3.7 μm
95% diameter ([1]; Example 13: 0% water (pure glycerol), 10 cycles at 1500 bar): 3.9 μm
D50% across dispersion media of 0% to 100% water [1, 12]: little change
difference in 95% diameter, pure glycerol vs pure water [1, 12]: approx. 1.1 μm
difference in D95%, 2 cycles vs 10 cycles ([1]; Example 13: pure glycerol (0% water), 1500 bar): approx. 3.1 μm
D95% ([1]; Example 13: pure glycerol (0% water), after 2 cycles at 1500 bar): 7.0 μm
95% diameter ([1]; Example 13: pure water, 10 cycles at 1500 bar): 2.8 μm
average PCS diameter [2]: 950 nm
polydispersity index (PI) [2]: 0.513
SMILES: CC1CN(c2nc(N(CCO)CC(C)(C)O)c3nc(-c4ccccc4)c(N4CC(C)OC(C)C4)nc3n2)CC(C)O1 (stereo not drawn) [drug from example 1, 1-[[2,7-bis(2,6-dimethyl-4-morpholinyl)-6-phenyl-4-pteridinyl]-(2-hydroxyethyl)-amino]-2-methyl-[cis[cis]]-propan-2-ol]

SMILES: NC(=O)N=NC(N)=O [azodicarbonamide]
average diameter determined by light microscopy [3]: 5.45 μm
50% diameter [1, 13]: 3.0 μm
D90% [1, 13]: 6.2 μm
D95% [1, 13]: 7.2 μm
